Test results taken from patent US20090169642A1, “RECONSTRUCTED LIVING ADIPOSE TISSUE” (priority 2005, published 2009).

Tests used:
[1] = tested on: tissue-engineered adipose sheets; test: Lipolysis measurements (glycerol release from adipose tissue sheets); assay type: cell-based, human
Experimental: Lipolysis measurements. The lipolytic cell response of the adipose tissue sheets cultured for 27 days was assessed by measuring the amount of glycerol released into the incubation medium after treatment with 1 μM isoproterenol or its appropriate vehicle control. The tissues were previously incubated in serum-free medium for a minimum of 2 days to avoid interference with serum factors, and rinsed with serum-free medium before the assay. After 1, 2, 4 and 24 hours, the conditioned medium was immediately tested for the release of glycerol using an enzyme-coupled glycerol assay based on a colorimetric quantification (Sigma).

[2] = tested on: adipose-derived stromal cells; test: Quantification of adipose differentiation by Oil Red O staining; assay type: cell-based, human; settings: fresh stromal cells not submitted to freezing, medium with vs without ascorbic acid
Experimental: Quantification of adipose differentiation. After 14 days of differentiation, independently of the time spent in culture before the time of adipogenic induction, Oil Red 0 (ORO) staining of the cytoplasmic neutral lipids of the droplets were performed according to a modification from [Kuri-Harcuch W et al. 1978; 75(12):6107-9, Ramirez-Zacarias J L et al. Histochemistry 1992; 97(6):493-7]. Briefly, cultures were rinsed, fixed with 10% buffered formalin, stained with 0.3% ORO in isopropanol and extracted with 4% Nonidet/isopropanol for quantification at 520 nm using a SpectraMax Plus™ spectrometer (Molecular Device) with SoftmaxPro™ Ver 4.7.1.

| SMILES | time of peak in glycerol release post-stimulation ([1]; 1 μm isoproterenol, LA adipose tissue sheet cells in P3, adipocytes differentiated for 20 days, relative to basal levels) [h] | lipolytic activation (hydrolysis of triglycerides into fatty acids and glycerol) ([1]; isoproterenol 1 μM, adipose constructs from lipoaspirated fat in P3, 20 days of in vitro differentiation) | adipocyte differentiation (ORO staining) [2] |
| --- | --- | --- | --- |
| CC(C)NCC(O)c1ccc(O)c(O)c1 (stereo not drawn) [Isoproterenol] | 2 | induced the hydrolysis of triglycerides |  |
| O=C1O[C@H]([C@@H](O)CO)C(O)=C1O [ascorbic acid] |  |  | can promote adipocyte differentiation |
